Test results from patent US20260200946A1, “KRAS(G12V) INHIBITORS” (Ranok Therapeutics (Hangzhou) Co. Ltd., priority 2022, published 2026).
pEC50: −log10 of the molar value.

These compounds were tested on NCIH727 cells (assay: Cancer cell line proliferation (CellTiter-Glo), NCI-H727). Conditions: Homo sapiens, 72 h, NCIH727 lung carcinoid, heterozygous G12V.
Assay type: cell-based
Protocol: Cell lines were cultured essentially according to ATCC recommendations.
SW620 and NCIH727 cells were plated in 384-well tissue culture plates at 1,000 cells/well and incubated at 37° C./5% CO2 for 72 hr in 40 μl of media. […] Each cell line was then treated with test compounds at various concentrations with a final concentration of 0.5% DMSO/well, and then incubated at 37° C./5% CO2 for 72 hr. 40 μl of CellTiter-Glo® Reagent (Promega Corporation, Madison, WI) was added to each well and processed according manufacturer's protocol. Results were analyzed and IC50 values were calculated in GraphPad 8.0 software.
With C#Cc1c(F)ccc2cc(O)cc(-c3nc(OC)c4c(N5CC6CCC(C5)N6C(=O)Nc5ccc6c(c5)CCO6)nc(OCC5(CN6CCC(F)CC6)CC5)nc4c3F)c12 [Example 97] the pEC50 was 6.00 to 7.00. C#Cc1c(F)ccc2cc(O)cc(-c3nc(OC)c4c(N5CC6CCC(C5)N6C(=O)N5CC(C#N)C5)nc(OCC5(CN6CC7CC7C6)CC5)nc4c3F)c12 (centres unmarked) [Example 130] showed a pEC50 greater than 7.00. Work on C#Cc1c(F)ccc2cc(O)cc(-c3nc(C#C)c4c(N5CC6CCC(C5)N6C(=O)CCC#N)nc(OCC5(CN6CCC(F)CC6)CC5)nc4c3F)c12 [Example 103] yielded a pEC50 of 6.00 to 7.00. For C#Cc1c(F)ccc2cc(O)cc(-c3nc(OC)c4c(N5CC6CCC(C5)N6C(=O)C5C[C@H]5C#N)nc(OCC5(CN6CCC(F)CC6)CC5)nc4c3F)c12 (some centres unmarked) [Example 80], the pEC50 was greater than 7.00. In the case of C#Cc1c(F)ccc2cc(O)cc(-c3nc(OC)c4c(N5CC6CCC(C5)N6C(=O)OC(C)(C)C#N)nc(OCC5(CN6CC7CC7C6)CC5)nc4c3F)c12 (centres unmarked) [Example 111], the pEC50 was greater than 7.00. Work on C#CCNC(=O)N1C2CCC1CN(c1nc(OCC3(CN4CCC(F)CC4)CC3)nc3c(F)c(-c4cc(O)cc5ccc(F)c(C#C)c45)nc(OC)c13)C2 [Example 88] yielded a pEC50 greater than 7.00. For C#Cc1c(F)ccc2cc(O)cc(-c3nc(OC)c4c(N5CC6CCC(C5)N6C(=O)C5CN(C)C5)nc(OCC5(CN6CC7CC7C6)CC5)nc4c3F)c12 (centres unmarked) [Example 151], the pEC50 was less than 6.00. Compound C#Cc1c(F)ccc2cc(O)cc(-c3nc(OC)c4c(N5CC6CCC(C5)N6C(=O)Nc5cc(F)cc(F)c5)nc(OCC5(CN6CCC(F)CC6)CC5)nc4c3F)c12 [Example 90] has a pEC50 of 6.00 to 7.00. For C#Cc1c(F)ccc2cc(O)cc(-c3nc(OC)c4c(N5CC6CCC(C5)N6C(=O)[C@H]5CC5(F)F)nc(OCC5(CN6CC7CC7C6)CC5)nc4c3F)c12 (some centres unmarked) [Example 102], the pEC50 was greater than 7.00. Work on C#Cc1c(F)ccc2cc(O)cc(-c3nc(OC)c4c(N5CC6CCC(C5)N6C(=O)C5(C)CC5)nc(OCC5(CN6CC7CC7C6)CC5)nc4c3F)c12 (centres unmarked) [Example 114] yielded a pEC50 of less than 6.00. Compound C#Cc1c(F)ccc2cc(O)cc(-c3nc(OC)c4c(N5CC6CCC(C5)N6C(=O)NC5CCC(F)(F)C5)nc(OCC5(CN6CCC(F)CC6)CC5)nc4c3F)c12 (centres unmarked) [Example 79] has a pEC50 of 6.00 to 7.00. For C#Cc1c(F)ccc2cc(O)cc(-c3nc(OC)c4c(N5CC6CCC(C5)N6C(=O)CCN(C)C)nc(OCC5(CN6CC7CC7C6)CC5)nc4c3F)c12 (centres unmarked) [Example 107], the pEC50 was less than 6.00. In the case of C#Cc1c(F)ccc2cc(O)cc(-c3nc(OC)c4c(N5CC6CCC(C5)N6C(=O)C[C@@H](C)C#N)nc(OCC5(CN6CC7CC7C6)CC5)nc4c3F)c12 (some centres unmarked) [Example 177], the pEC50 was greater than 7.00. Compound C#Cc1c(F)ccc2cc(O)cc(-c3nc(OC)c4c(N5CC6CCC(C5)N6C(=O)N[C@@H]5CCC(F)(F)C5)nc(OCC5(CN6CCC(F)CC6)CC5)nc4c3F)c12 [Example 82] has a pEC50 of 6.00 to 7.00. Work on C#Cc1c(F)ccc2cc(O)cc(-c3nc(OC)c4c(N5CC6CCC(C5)N6C(=O)C5(C(F)(F)F)CC5)nc(OCC5(CN6CC7CC7C6)CC5)nc4c3F)c12 (centres unmarked) [Example 116] yielded a pEC50 of less than 6.00. In the case of C#Cc1c(F)ccc2cc(N)cc(-c3nc(OC)c4c(N5CC6CCC(C5)N6C(=O)C[C@@H](O)C(F)(F)F)nc(OCC5(CN6CC7CC7C6)CC5)nc4c3F)c12 (some centres unmarked) [Example 171], the pEC50 was 6.00 to 7.00. Work on C#Cc1c(F)ccc2cc(O)cc(-c3nc(C#C)c4c(N5CC6CCC(C5)N6C(=O)C5CC5(F)F)nc(OCC5(CN6CCC(F)CC6)CC5)nc4c3F)c12 (centres unmarked) [Example 94] yielded a pEC50 of 6.00 to 7.00. With C#Cc1c(F)ccc2cc(OC(=O)C(C)C)cc(-c3nc(OC)c4c(N5CC6CCC(C5)N6C(=O)C(C#N)CC#N)nc(OCC5(CN6CC7CC7C6)CC5)nc4c3F)c12 (centres unmarked) [Example 179] the pEC50 was 6.00 to 7.00. In the case of C#Cc1c(F)ccc2cc(O)cc(-c3nc(OC)c4c(N5CC6CCC(C5)N6C(=O)NC56CC(C5)C6)nc(OCC5(CN6CC7CC7C6)CC5)nc4c3F)c12 (centres unmarked) [Example 198], the pEC50 was greater than 7.00. With C#Cc1c(F)ccc2cc(O)cc(-c3nc(OC)c4c(N5CC6CCC(C5)N6C(=O)C5CC(F)(C(C)C)C5)nc(OCC5(CN6CC7CC7C6)CC5)nc4c3F)c12 (centres unmarked) [Example 150] the pEC50 was 6.00 to 7.00. Work on C#Cc1c(F)ccc2cc(O)cc(-c3nc(OC)c4c(N5CC6CCC(C5)N6C(=O)N[C@H]5C[C@@H](C#N)C5)nc(OCC5(CN6CC7CC7C6)CC5)nc4c3F)c12 (some centres unmarked) [Example 190] yielded a pEC50 of 6.00 to 7.00. With C#Cc1c(F)ccc2cc(O)cc(-c3nc(OC)c4c(N5CC6CCC(C5)N6C(=O)N5CC(C(F)F)C5)nc(OCC5(CN6CC7CC7C6)CC5)nc4c3F)c12 (centres unmarked) [Example 201] the pEC50 was 6.00 to 7.00. Compound C#Cc1c(F)ccc2cc(O)cc(-c3nc(OC)c4c(N5CC6CCC(C5)N6C(=O)NC5CCC5)nc(OCC5(CN6CCC(F)CC6)CC5)nc4c3F)c12 [Example 89] has a pEC50 greater than 7.00. With C#Cc1c(F)ccc2cc(O)cc(-c3nc(OC)c4c(N5CC6CCC(C5)N6C(=O)C5(F)CC5)nc(OCC5(CN6CCC(F)CC6)CC5)nc4c3F)c12 [Example 66] the pEC50 was 6.00 to 7.00. C#Cc1c(F)ccc2cc(O)cc(-c3nc(OC)c4c(N5CC6CCC(C5)N6C(=O)NC5CC(F)C5)nc(OCC5(CN6CCC(F)CC6)CC5)nc4c3F)c12 (centres unmarked) [Example 91] was tested, and the pEC50 was greater than 7.00. C#Cc1c(F)ccc2cc(O)cc(-c3nc(OC)c4c(N5CC6CCC(C5)N6C(=O)CC(C)(O)C(F)(F)F)nc(OCC5(CN6CC7CC7C6)CC5)nc4c3F)c12 (centres unmarked) [Example 193] was tested, and the pEC50 was 6.00 to 7.00. With C#Cc1c(F)ccc2cc(O)cc(-c3nc(OC)c4c(N5CC6CCC(C5)N6C(=O)N5CC(F)C5)nc(OCC5(CN6CC7CC7C6)CC5)nc4c3F)c12 (centres unmarked) [Example 200] the pEC50 was greater than 7.00. Compound C#Cc1c(F)ccc2cc(O)cc(-c3nc(OC)c4c(N5CC6CCC(C5)N6C(=O)CCC=O)nc(OCC5(CN6CC7CC7C6)CC5)nc4c3F)c12 (centres unmarked) [Example 132] has a pEC50 of 6.00 to 7.00. In the case of C#Cc1c(F)ccc2cc(O)cc(-c3nc(OC)c4c(N5CC6CCC(C5)N6C(=O)NCC(C)(C)F)nc(OCC5(CN6CCC(F)CC6)CC5)nc4c3F)c12 [Example 67], the pEC50 was 6.00 to 7.00. C#Cc1c(F)ccc2cc(O)cc(-c3nc(OC)c4c(N5CC6CCC(C5)N6C(=O)NC(C)C#N)nc(OCC5(CN6CCC(=C)CC6)CC5)nc4c3F)c12 (centres unmarked) [Example 93] showed a pEC50 greater than 7.00. C#Cc1c(F)ccc2cc(O)cc(-c3nc(OC)c4c(N5CC6CCC(C5)N6C(=O)NC56CC(F)(C5)C6)nc(OCC5(CN6CC7CC7C6)CC5)nc4c3F)c12 (centres unmarked) [Example 183] was tested, and the pEC50 was greater than 7.00. In the case of C#Cc1c(F)ccc2cc(O)cc(-c3nc(OC)c4c(N5CC6CCC(C5)N6C(=N)NCC(F)(F)F)nc(OCC5(CN6CCC(F)CC6)CC5)nc4c3F)c12 [Example 85], the pEC50 was less than 6.00. With C#Cc1c(F)ccc2cc(O)cc(-c3nc(OC)c4c(N5CC6CCC(C5)N6C(=O)N5CC6CC6C5)nc(OCC5(CN6CC7CC7C6)CC5)nc4c3F)c12 (centres unmarked) [Example 143] the pEC50 was 6.00 to 7.00. In the case of C#Cc1c(F)ccc2cc(O)cc(-c3nc(OC)c4c(N5CC6CCC(C5)N6C(=O)COC(F)(F)F)nc(OCC5(CN6CC7CC7C6)CC5)nc4c3F)c12 (centres unmarked) [Example 138], the pEC50 was 6.00 to 7.00. C#Cc1c(F)ccc2cc(O)cc(-c3nc(OC)c4c(N5CC6CCC(C5)N6C)nc(OCC5(CN6CC7CC7C6)CC5)nc4c3F)c12 (centres unmarked) [Example 137] gave a pEC50 of less than 6.00. C#Cc1c(F)ccc2cc(O)cc(-c3nc(C#C)c4c(N5CC6CCC(C5)N6C(=O)NC5CC5)nc(OCC5(CN6CCC(F)CC6)CC5)nc4c3F)c12 [Example 95] showed a pEC50 of 6.00 to 7.00. Compound C#Cc1c(F)ccc2cc(O)cc(-c3nc(OC)c4c(N5CC6CCC(C5)N6C(=O)NC(C)C#N)nc(OCC5(CN6CCC(C#N)CC6)CC5)nc4c3F)c12 (centres unmarked) [Example 134] has a pEC50 greater than 7.00. For C#Cc1c(F)ccc2cc(O)cc(-c3nc(OC)c4c(N5CC6CCC(C5)N6C(=O)C(C)=O)nc(OCC5(CN6CC7CC7C6)CC5)nc4c3F)c12 (centres unmarked) [Example 124], the pEC50 was 6.00 to 7.00. C#Cc1c(F)ccc2cc(O)cc(-c3nc(OC)c4c(N5CC6CCC(C5)N6C(=O)C(C)(C#N)CC#N)nc(OCC5(CN6CC7CC7C6)CC5)nc4c3F)c12 (centres unmarked) [Example 139] gave a pEC50 of 6.00 to 7.00. C#Cc1c(F)ccc2cc(O)cc(-c3nc(OC)c4c(N5CC6CCC(C5)N6C(=O)NC(C)C(F)(F)F)nc(OCC5(CN6CC7CC7C6)CC5)nc4c3F)c12 (centres unmarked) [Example 163] showed a pEC50 of 6.00 to 7.00. C#Cc1c(F)ccc2cc(O)cc(-c3nc(OC)c4c(N5CC6CCC(C5)N6C(=O)NC(C)C#N)nc(OCC5(CN6CCC(C(F)(F)F)CC6)CC5)nc4c3F)c12 (centres unmarked) [Example 135] gave a pEC50 greater than 7.00. With C#Cc1c(F)ccc2cc(O)cc(-c3nc(OC)c4c(N5CC6CCC(C5)N6C(=O)C(C#N)CC5CC5)nc(OCC5(CN6CC7CC7C6)CC5)nc4c3F)c12 (centres unmarked) [Example 186] the pEC50 was less than 6.00. C#Cc1c(F)ccc2cc(O)cc(-c3nc(OC)c4c(N5CC6CCC(C5)N6C(=O)C5CC(F)(F)CO5)nc(OCC5(CN6CC7CC7C6)CC5)nc4c3F)c12 (centres unmarked) [Example 154] gave a pEC50 of 6.00 to 7.00. C#Cc1c(F)ccc2cc(O)cc(-c3nc(OC)c4c(N5CC6CCC(C5)N6C(=O)C(C)CC#N)nc(OCC5(CN6CC7CC7C6)CC5)nc4c3F)c12 (centres unmarked) [Example 141] gave a pEC50 of 6.00 to 7.00. With C#Cc1c(F)ccc2cc(O)cc(-c3nc(OC)c4c(N5CC6CCC(C5)N6C(=O)NCC5(F)COC5)nc(OCC5(CN6CCC(F)CC6)CC5)nc4c3F)c12 [Example 75] the pEC50 was 6.00 to 7.00. For C#Cc1c(F)ccc2cc(O)cc(-c3nc(OC)c4c(N5CC6CCC(C5)N6C(=O)C(C#N)C(C)(C)C)nc(OCC5(CN6CC7CC7C6)CC5)nc4c3F)c12 (centres unmarked) [Example 112], the pEC50 was less than 6.00. Compound C#Cc1c(F)ccc2cc(O)cc(-c3nc(OC)c4c(N5CC6CCC(C5)N6C(=O)CCCC#N)nc(OCC5(CN6CC7CC7C6)CC5)nc4c3F)c12 (centres unmarked) [Example 113] has a pEC50 of 6.00 to 7.00. C#Cc1c(F)ccc2cc(O)cc(-c3nc(OC)c4c(N5CC6CCC(C5)N6C(=O)NCC(F)(F)F)nc(OCC5(CN6CCC(C#N)CC6)CC5)nc4c3F)c12 [Example 133] showed a pEC50 greater than 7.00.

Same assay, conditions: NCIH727 lung carcinoid, heterozygous G12V, 72 hr
Compound C#Cc1c(F)ccc2cc(O)cc(-c3nc(OC)c4c(N5CC6CCC(C5)N6C(=O)C5C[C@H]5C#N)nc(OCC5(CN6CCC(F)CC6)CC5)nc4c3F)c12 (some centres unmarked) [Example 83] has a pEC50 of 6.00 to 7.00. In the case of C#Cc1c(F)ccc2cc(O)cc(-c3nc(OC)c4c(N5CC6CCC(C5)N6C(=O)NC5CC(F)C5)nc(OCC5(CN6CCC(F)CC6)CC5)nc4c3F)c12 (centres unmarked) [Example 92], the pEC50 was 6.00 to 7.00.
